Measured values from patent EP0282456A2, “Mylbemycin derivatives to combat parasites on animals” (CIBA-GEIGY AG, priority 1987, dated 1988).

Key:
[1] = system: Li-Larven von Lucilia sericata; assay: Activity against L1 larvae of Lucilia sericata (mortality in larval culture medium); settings: 100 ppm active substance in larval medium; about 30 L1 larvae; mortality after 4 days
Protocol: 1 ml einer wässrigen Suspension der zu prüfenden Aktivsubstanz werden so mit 3 ml eines speziellen Larvenzuchtmediums bei ca. 50° C vermischt, dass ein Homogenisat von wahlweise 250 ppm oder 100 ppm Wirkstoffgehalt entsteht. In jede Reagenzglas-Probe werden ca. 30 Lucilia-Larven (L1) eingesetzt. Nach 4 Taben wird die Mortalitätsrate bestimmt. Verbindungen der Formel I aus den Tabellen, wie z.B. die Verbindungen H4 und H5 erzielten mit 100 ppm eine Wirkung von 100%.

[2] = system: Haemonchus contortus und Trichostrongylus colubriformis; assay: Test on sheep infected with nematodes (worm egg count in faeces); format: in vivo, Schaf; settings: single dose 0,2 mg/kg by stomach tube or intraruminal injection, compared with untreated infected controls
Protocol: Der Wirkstoff wird als Suspension formuliert mit einer Magensonde oder durch Injektion in den Pansen eines Schafes gegeben, das mit Haemonchus contortus und Trychostrongylus colubriformis künstlich infiziert worden ist. Pro Dosis werden 1 bis 3 Tiere verwendet. Jedes Schaf wird nur einmal mit einer einzigen Dosis behandelt, und zwar wahlweise mit 0,5 mg oder 0,2 mg/kg Körpergewicht. Die Evaluierung erfolgt durch Vergleich der Anzahl der vor und nach Behandlung im Kot der Schafe ausgeschiedenen Wurmeier. Gleichzeitig und gleichartig infizierte aber unbehandelte Schafe dienen als Kontrolle.

Dermanyssus gallinae = assay: Miticidal activity against Dermanyssus gallinae; settings: 100 ppm test solution; about 200 mites; observed for three days
Protocol: 2 bis 3 ml einer Testlösung (100, 10, 1 und 0,1 ppm Aktivsubstanz) werden in einen nach oben offenen Glasbehälter gegeben und ca. 200 Milben in unterschiedlichen Entwicklungsstadien in diesen Behälter eingesetzt. Der Glasbehälter wird mit einem Wattebausch verschlossen und 10 Minuten gleichmässig, bis zur vollständigen Benetzung der Milben geschüttelt. Danach wird der Behälter umgekehrt hingestellt, bis die überschüssige Testlösung von der Watte aufgesogen ist. Der Behälter wird erneut gekehrt und die behandelten Milben zur Evaluierung der Wirksamkeit der Testsubstanzen drei Tage unter Laborbedingungen beobachtet, wobei die Mortalität als Massstab für Wirksamkeit herangezogen wird. Verbindungen aus den Tabellen, wie z.B. die Verbindungen H4 und H5 zeigen bei 100 ppm eine Wirkung von 1000/0.

Row | Substance | Wirkung (Mortalitätsrate) [1] [%] | Nematodenbefall (Reduktion der Wurmeier im Kot) [2] | Wirkung (Mortalität) (Dermanyssus gallinae)
1 | 13-Vinyl-milbemycin A4 [H4] | 100 | keinen Nematodenbefall | 1000/0
2 | 13ß-Vinyl-milbemycin A4 [H5] | 100 | keinen Nematodenbefall | 1000/0
